Outcome and IC50 data for 96 molecules are collected here from PubChem BioAssay AID550 (SRMLSC, 2006).

SMILES strings stand for the structures. Calls of active or inactive are those of the source.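 Rule for the calls: active = clearly stronger inhibition of the target decarboxylase than of the coupling enzymes tested in parallel without it; inactive = the rest.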

A word on the IC50: it is the midpoint of a concentration-inhibition curve.

In the test the target is diphosphomevalonate decarboxylase (Streptococcus pneumoniae D39). The test can be described thus: diphosphomevalonate decarboxylase inhibition dose curves – biochemical, PK/LDH-coupled NADH fluorescence, hexokinase coupling counter-screen, dose response (AID 550). To be noted: purified DPM-DC.
As to `COC(=O)Cn1c(=NC(=O)CSC(C)=O)sc2ccccc21`, the result was inactive.
Regarding `O=C(Nc1ccc(N2CCCCC2)cc1)c1cccnc1`, the result was inactive.
Still for that read-out and setting: the entry for `O=C(CSc1nnnn1Cc1ccccc1)NCCc1ccccc1` is “inactive”; for `CSc1ncc(Cl)c(C(=O)Nc2nnc(SC)s2)n1` it is “inactive”.
On the same count and under the same terms, in the case of `CC(NC(=O)c1cccc(N2CCCC2=O)c1)c1ccc2c(c1)OCCO2` (stereo unspecified) it was “inactive”; in that of `COc1ccc(C(=O)NCc2cn3c(C)csc3n2)cc1OC`, “inactive”; in that of `CCCN1C(=O)C(NC(C)=O)c2cc(OC)ccc21` (stereo unspecified), “inactive”.
On to `Cc1ccc(OCCn2c(C)c(/C=N/n3cnnc3)c3ccccc32)cc1`, for which the result was inactive.
In the case of `Clc1c(-c2nnc3n2CCC3)sc2ccccc12`, the outcome was inactive.
On to `COc1ccc(C2CC(c3cccc(C)c3)n3nc(N)nc3N2)cc1` (stereo unspecified), for which the outcome was inactive.
Same read-out and setting: in the case of `COc1cccc2cc3c(=O)n(-c4ccccc4)nc-3oc12` it was “inactive”.
Still for that read-out and setting: in the case of `O=C(CCc1nc(-c2ccccc2F)no1)NCCN1CCc2ccccc2C1` it was “inactive”.
In the case of `CC(C)(C)CC(=O)Nc1nnc(-c2cccs2)s1`, the outcome was inactive.
Take `Cc1cc(C(=O)CSc2nnnn2-c2ccc(Cl)cc2)c(C)n1CC1CCCO1` (stereo unspecified): the outcome was inactive.
For `CC1Cc2nc(SCC(=O)Nc3ccc4c(c3)OCO4)n(CCc3ccccc3)c(=O)c2S1` (stereo unspecified), the result was inactive.
As for `Cc1c(C(=O)NCc2ccc3c(c2)OCO3)sc2nc(-c3ccccc3)cn12`, the outcome was inactive.
On the same count and under the same terms, the entry for `C=C(C)Cn1c(COc2ccccc2)nnc1SCC(=O)O` is “inactive”.
On to `Cc1nc(-c2cnn(-c3ccccc3)c2)c2cc(C)oc2n1`, for which the result was inactive.
Consider `COc1ccccc1NC(=O)C1=C(C)NC2=C(C(=O)CCC2)C1c1ccc2c(c1)OCO2` (stereo unspecified), for which the 50% inhibitory concentration (IC50) was 76.3 µM.
`Cc1noc(C)c1CSc1nc2ccccc2s1`: the outcome was inactive.
In the case of `COc1cc(NC(=O)c2cccs2)c(C(=O)OCC(=O)NCc2ccco2)cc1OC`, the result was inactive.
With `O=C1C(Cl)=C(NCC2CCCO2)C(=O)N1Cc1ccccc1` (stereo unspecified), the result was inactive.
On to `Cc1ccccc1CN1CCN(S(=O)(=O)c2ccc(F)cc2)CC1`, for which the result was inactive.
Still for that read-out and setting: in the case of `Cc1ccc(S(=O)(=O)N2CCOCC(=O)NCCOCCNC(=O)COCC2)cc1` it was “inactive”.
On to `COC(=O)CC1SC(=O)NC1=Nc1ccccc1` (stereo unspecified), for which the result was inactive.
Same read-out and setting: the entry for `Nc1nc(N)c2sc3nc4c(cc3c2n1)CCC4` is “inactive”.
With `Cc1cc(-c2ccccc2)nc2cc(C(N)=O)nn12`, the outcome was inactive.
Regarding `CCOC(=O)c1c(Nc2nc(C)c(C(=O)NC)s2)sc(C)c1C`, the outcome was inactive.
Regarding `CCOC(=O)C(Cc1ccccc1)C(=O)Nc1nccs1` (stereo unspecified), the result was inactive.
For `Cc1ccccc1Cc1c(C)nc2c(C(=O)N3CCN(Cc4ccc5c(c4)OCO5)CC3)cnn2c1C`, the outcome was inactive.
For `N#Cc1c(C(F)(F)F)cc(-c2ccco2)nc1SCc1ccncc1`, the result was inactive.
With `CCOC(=O)c1cncc(NC(=O)c2ccccc2)c1`, the result was inactive.
As for `COc1ccccc1CNc1ncnc2nc[nH]c12`, the result was inactive.
For the molecule `CCOc1nc(-c2ccccc2)ccc1-c1noc(-c2ccc(OC)c(OC)c2)n1`, the result was inactive.
On to `CC1CC(C)CN(CCCNC(=O)Cn2ncc3c(=O)oc4ccccc4c32)C1` (stereo unspecified), for which the outcome was inactive.
Consider `O=C(O)CCn1nnc(-c2cccs2)n1`, for which the result was inactive.
For the molecule `O=C1CCC(C(=O)N(Cc2ccco2)C2(C(=O)NC3CCCC3)CCCCC2)N1` (stereo unspecified), the result was inactive.
Same read-out and setting: the entry for `COc1ccc(-c2cc(C(F)(F)F)nc(SCCC(=O)Nc3cc(C)on3)n2)cc1` is “inactive”; for `Cc1ccc2oc(=O)c3cnn(CC(=O)NC4CCN(Cc5ccccc5)CC4)c3c2c1` it is “inactive”.
On the same count and under the same terms, the entry for `Cn1c(=NC(=O)c2ccco2)sc2cccc(F)c21` is “inactive”.
Turning to `CCc1ccc(S(=O)(=O)NCc2cn3ccsc3n2)s1`, the outcome was inactive.
Still for that read-out and setting: the entry for `CCC(=O)Nc1nnc(Sc2ccc(N(C)C)cc2)s1` is “inactive”.
As to `O=C1CC(c2cccnc2)c2cc3c(cc2N1)OCO3` (stereo unspecified), the outcome was inactive.
For `CC1=C(C(=O)OCC2CCCO2)C(c2ccncc2)C2=C(CCCC2=O)N1` (stereo unspecified), the IC50 entry was “inactive”.
On to `COc1cccc(C(=O)Nc2ccc(NC(=O)C(C)C)nc2)c1`, for which the result was inactive.
On to `COc1cc2c(cc1NC(=O)c1ccc3c(c1)OCO3)oc1ccccc12`, for which the outcome was inactive.
`Cc1cccc(C)c1NC(=O)C(c1ccccc1)N1CCN(C(=O)c2ccco2)CC1` (stereo unspecified): the result was inactive.
Still for that read-out and setting: in the case of `CCOc1ccc(N(CC(=O)Nc2ccc(F)c(F)c2)S(=O)(=O)c2c(C)noc2C)cc1` it was “inactive”; in that of `Cc1cc(N2CCOCC2)c2c(N)c(Br)cc(C)c2n1`, “inactive”; in that of `Cc1ccsc1C1C(C(=O)O)c2ccccc2C(=O)N1C` (stereo unspecified), “inactive”.
For `CCOC(=O)C1=C(C)NC(C)=C(C(=O)OCC)C1c1cc2ccc(C)cc2[nH]c1=O`, the IC50 is 150 µM.
`CCOc1ccc(C(=O)O)cc1OC`: the result was inactive.
Consider `Cn1c(-c2ccc(N)cc2)nc2ccccc21`, for which the outcome was inactive.
For `CN(C)C(=O)N1CCC(C(=O)NCc2cccs2)CC1`, the outcome was inactive.
As to `Cc1cc(=O)oc2cc(OC(C)C(=O)O)c(Cl)cc12` (stereo unspecified), the outcome was inactive.
Turning to `CCN(CC)CCCN(Cc1cc2cc3c(cc2[nH]c1=O)OCCO3)C(=O)Nc1ccccc1`, the result was inactive.
On the same count and under the same terms, in the case of `CCCc1nnc(NC(=O)CN2CCOCC2)s1` it was “inactive”.
Take `CCn1c(SCC(=O)Nc2cccc(C(C)=O)c2)nnc1C(C)C`: the result was inactive.
For `COc1cc2c(C#N)c(N3CCN(c4ccccc4OC)CC3)nc(N)c2c(N)n1`, the result was inactive.
As for `COC(=O)C1=C(C)OC(N)=C(C#N)C1c1cc(OC)c(OCC(N)=O)cc1Cl` (stereo unspecified), the outcome was inactive.
As to `COc1cc2c(cc1OC)/C(=C/C(=O)N1CCOCC1)NC(C)(C)C2`, the IC50 was 38.8 µM.
Turning to `Cc1ccc(-n2c(SCC(=O)NCc3ccco3)nnc2-c2cccnc2)c(C)c1`, the result was inactive.
Same read-out and setting: in the case of `CC1(C)C(C=C(Cl)Cl)C1C(=O)N1CCN(c2ccccc2)CC1` (stereo unspecified) it was “inactive”; in that of `COc1cc(C2C(C#N)=C(C)NC3=C2C(=O)CC(C)(C)C3)cc(OC)c1O` (stereo unspecified), “inactive”.
In the case of `CCc1ccc(NC(=O)c2cnc3scc(C)n3c2=O)cc1`, the outcome was inactive.
For the molecule `COc1ccccc1NC(=O)CSc1nc(O)cc(=O)n1-c1ccccc1OC`, the result was inactive.
With `CN(C)S(=O)(=O)c1cccc(C(=O)C2=C3SC=C(c4ccccc4)N3CC2)c1`, the outcome was inactive.
As to `CCOC(=O)c1[nH]c2ccc(OC)cc2c1NC(=O)CN1CCN(c2ccccn2)CC1`, the outcome was inactive.
`CCCn1c(=O)c2ccccc2n2c(SCC(=O)/C(C#N)=C(\C)N)nnc12`: the outcome was inactive.
As for `O=C(c1ccc(F)cc1)N1CCC(N2CCCCCC2)CC1`, the result was inactive.
As to `Cc1cccc(C(=O)Nc2cc(=O)n(C)c(=O)n2C)c1`, the result was inactive.
`Cc1cc(N2CCN(C(=O)c3ccco3)CC2)n2nc(-c3cccc(Cl)c3)cc2n1`: the outcome was inactive.
In the case of `CCOC(=O)COc1ccc2nsnc2c1Cl`, the result was inactive.
Take `O=c1c(-c2ccccc2)c(O)c2cccc3c2n1CCC3`: the outcome was inactive.
Turning to `Cn1c(=O)[nH]c(=O)c2c1nc(NC1CCCCC1)n2Cc1ccccc1`, the result was inactive.
For `COc1cc(-c2nc3cnccc3n2C)cc(OC)c1OC`, the result was inactive.
The same measure, in the same setting: in the case of `CN(C)Cc1nc2ccccc2c(=O)n1Cc1nc(-c2cc3ccccc3o2)cs1` it was “inactive”; in that of `Cc1c(C(=O)NC2CC2)oc2ccc(S(=O)(=O)N3CCCCCC3)cc12`, “inactive”.
As to `O/N=C1\CCC\C1=C/c1ccco1`, the result was inactive.
Same read-out and setting: the entry for `c1ccc(-c2nc3nonc3c3nc4ccccc4n23)cc1` is “inactive”.
For `COc1ccc(N2C(C)=CS/C2=C(/C#N)c2nnc(N3CCOCC3)n2-c2ccccc2)cc1`, the result was inactive.
With `Cc1c(NC(=O)C2CCN(S(=O)(=O)c3ccccc3)CC2)c(=O)n(-c2ccccc2)n1C`, the result was inactive.
`CCCCCn1c(SCC#N)nc2cc(C(=O)NCC3CCCO3)ccc2c1=O` (stereo unspecified): the outcome was inactive.
As for `COc1cc(NC(=O)c2ccco2)c(OC)cc1NC(=O)CCC(=O)Nc1cc(C)ccc1C`, the outcome was inactive.
On to `CC(C)CC(=O)NCC(C)NC(=O)CC(C)C` (stereo unspecified), for which the result was inactive.
Same read-out and setting: the entry for `CCOc1ccc(N2CC(C(=O)OC)CC2=O)cc1` (stereo unspecified) is “inactive”; for `O=S(=O)(Nc1ccc(C(F)(F)F)cc1)c1cnc[nH]1` it is “inactive”; for `CCCn1c(C)nc2c(c1=O)c1nc3ccccc3nc1n2-c1ccc2c(c1)OCCO2` it is “inactive”.
With `CCN(CCNC(=O)C1CCN(c2nnc(-n3cccc3)s2)CC1)c1ccccc1`, the outcome was inactive.
Same read-out and setting: in the case of `CCN(CC)c1nc2ccccc2n2cnnc12` it was “inactive”.
For `Cc1ccc(S(=O)(=O)NCCN2CCOCC2)cc1C`, the result was inactive.
As to `O=C(C1CCCCC1)N1CCC(c2nc3c(nnn3Cc3ccccc3Cl)c(=O)[nH]2)CC1`, the result was inactive.
As to `Cn1c(SCC(=O)N2CCOCC2)nnc1-c1ccc(NC(=O)c2ccccc2F)cc1`, the outcome was inactive.
Regarding `Cc1c(C(=O)OCC(C)(C)CN(C)C)oc2ccccc12`, the outcome was inactive.
As for `CCOC(=O)CSc1cc(=O)n(C)c2cc(Cl)ccc12`, the result was inactive.
In the case of `CC(C)C(OC(=O)CN1C(=O)COc2ccccc21)C(=O)NC1CCCC1` (stereo unspecified), the outcome was inactive.
